The test system of this test is ISG reporter activity in THP1-Dual cell. The experiment in a line: ISG reporter assay. Format: cell-based. Conditions: Homo sapiens, compounds incubated with cells for 24 hours, QUANTI-Blue, absorbance at 655 nm. The procedure: [Worded in the source for another cell line; this cell line is reported under the same test.] THP1-Blue cells (cat. no. thp-isg) were purchased from InvivoGen (Sandiago, USA). Penicillin—streptomycin (cat. no. L0022-100), Fetal Bovine Serum (FBS) (cat. no. S1480-500) and Roswell Park Memorial Institute (RPMI) 1640 media (cat. L0498-500) were purchased from biowest (Nuaille, France). Zeocin (cat. no. ant-zn-OS) and Normocin (cat. no. ant-nr-1) were purchased from InvivoGen (Sandiago, USA). QUANTI-Blue™ (cat. no. rep-qbs) was purchased from InvivoGen. THP1-Blue cells were cultured in RPMI 1640 medium with 10% heat-inactivated FBS, 100 μg/ml Normocin, 100 μg/ml Zeocin and 100 U/ml-100 μg/ml penicillin-streptomycin. The cells were incubated at 37° C. in a humidified atmosphere of 5% CO2.
THP1-Blue cells were seeded at 5×10^4 cells/well (90 μl/well). 10 μl of compounds were added to the cells and incubated for 24 hours. 20 μl of cell culture supernatant was dispensed new 96-well plate (cat. no. 30096) with 180 μl of QUANTI-Blue™ solution and incubated for 15 minutes at 37° C. The absorbance was measured by Varioskan Lux (Thermofisher Scientific, USA) at 655 nm.

Bounds are passed on as bounds.

`CCn1nc(C)cc1C(=O)Nc1nc2cc(C(N)=O)cc(OC)c2n1C/C=C/Cn1c(NC(=O)c2cc(C)nn2CC)nc2cc(C(N)=O)cc(OCC#CC3CCN(C(=O)OC4CC4)CC3)c21` [Example 6, cyclopropyl (E)-4-(3-((5-carbamoyl-1-(4-(5-carbamoyl-2-(1-ethyl-3-methyl-1H-pyrazole-5-carboxamido)-7-methoxy-1H-benzo[d]imidazol-1-yl)but-2-en-1-yl)-2-(1-ethyl-3-methyl-1H-pyrazole-5-carboxamido)-1H-benzo[d]imidazol-7-yl)oxy)prop-1-yn-1-yl)piperidine-1-carboxylate] returned an EC50 of less than 50 nM.

The compound `CCn1nc(C)cc1C(=O)Nc1nc2cc(C(N)=O)cc(OC)c2n1C/C=C/Cn1c(NC(=O)c2cc(C)nn2CC)nc2cc(C(N)=O)cc(OCC#CCC3CCCN(C(=O)OC(C)(C)C)C3)c21` (centres unmarked) [Example 52, tert-butyl (E)-3-(4-((5-carbamoyl-1-(4-(5-carbamoyl-2-(1-ethyl-3-methyl-1H-pyrazole-5-carboxamido)-7-methoxy-1H-benzo[d]imidazol-1-yl)but-2-en-1-yl)-2-(1-ethyl-3-methyl-1H-pyrazole-5-carboxamido)-1H-benzo[d]imidazol-7-yl)oxy)but-2-yn-1-yl)piperidine-1-carboxylate] had an EC50 of less than 50 nM.

Compound `CCn1nc(C)cc1C(=O)Nc1nc2cc(C(N)=O)cc(OC)c2n1C/C=C/Cn1c(NC(=O)c2cc(C)nn2CC)nc2cc(C(N)=O)cc(OCC#CCC3CCN(S(=O)(=O)C4CC4)CC3)c21` [Example 48, (E)-1-(4-(5-carbamoyl-2-(1-ethyl-3-methyl-1H-pyrazole-5-carboxamido)-7-methoxy-1H-benzo[d]imidazol-1-yl)but-2-en-1-yl)-7-((4-(1-(cyclopropylsulfonyl)piperidin-4-yl)but-2-yn-1-yl)oxy)-2-(1-ethyl-3-methyl-1H-pyrazole-5-carboxamido)-1H-benzo[d]imidazole-5-carboxamide] returned a 50% effective concentration (EC50) of less than 50 nM.

The compound `CCn1nc(C)cc1C(=O)Nc1nc2cc(C(N)=O)cc(OC)c2n1C/C=C/Cn1c(NC(=O)c2cc(C)nn2CC)nc2cc(C(N)=O)cc(OCC#CCC3CCN(C(=O)C4CCN(C(=O)OC(C)(C)C)CC4)CC3)c21` [Example 46, tert-butyl (E)-4-(4-(4-((5-carbamoyl-1-(4-(5-carbamoyl-2-(1-ethyl-3-methyl-1H-pyrazole-5-carboxamido)-7-methoxy-1H-benzo[d]imidazol-1-yl)but-2-en-1-yl)-2-(1-ethyl-3-methyl-1H-pyrazole-5-carboxamido)-1H-benzo[d]imidazol-7-yl)oxy)but-2-yn-1-yl)piperidine-1-carbonyl)piperidine-1-carboxylate] displayed an EC50 of less than 50 nM.

`CCn1nc(C)cc1C(=O)Nc1nc2cc(C(N)=O)cc(OC)c2n1C/C=C/Cn1c(NC(=O)c2cc(C)nn2CC)nc2cc(C(N)=O)cc(OCC#CC3CCN(S(=O)(=O)N4CCN(C(=O)OC(C)(C)C)CC4)CC3)c21` [Example 28, tert-butyl (E)-4-((4-(3-((5-carbamoyl-1-(4-(5-carbamoyl-2-(1-ethyl-3-methyl-1H-pyrazole-5-carboxamido)-7-methoxy-1H-benzo[d]imidazol-1-yl)but-2-en-1-yl)-2-(1-ethyl-3-methyl-1H-pyrazole-5-carboxamido)-1H-benzo[d]imidazol-7-yl)oxy)prop-1-yn-1-yl)piperidin-1-yl)sulfonyl)piperazine-1-carboxylate] had an EC50 of less than 50 nM.

`CCn1nc(C)cc1C(=O)Nc1nc2cc(C(=O)NOC)cc(OC)c2n1C/C=C/Cn1c(NC(=O)c2cc(C)nn2CC)nc2cc(C(N)=O)cc(OCC#CCN3CCN(C(=O)C(C)C)CC3)c21` [Example 39, (E)-1-(4-(5-carbamoyl-2-(1-ethyl-3-methyl-1H-pyrazole-5-carboxamido)-7-((4-(4-isobutyrylpiperazin-1-yl)but-2-yn-1-yl)oxy)-1H-benzo[d]imidazol-1-yl)but-2-en-1-yl)-2-(1-ethyl-3-methyl-1H-pyrazole-5-carboxamido)-N,7-dimethoxy-1H-benzo[d]imidazole-5-carboxamide] yielded an EC50 of more than 500 nM.

With `CCn1nc(C)cc1C(=O)Nc1nc2cc(C(=O)NOC)cc(OC)c2n1C/C=C/Cn1c(NC(=O)c2cc(C)nn2CC)nc2cc(C(N)=O)cc(OCC#CC3CCN(C(=O)OC(C)(C)C)CC3)c21` [Example 2, tert-butyl (E)-4-(3-((5-carbamoyl-2-(1-ethyl-3-methyl-1H-pyrazole-5-carboxamido)-1-(4-(2-(1-ethyl-3-methyl-1H-pyrazole-5-carboxamido)-7-methoxy-5-(methoxycarbamoyl)-1H-benzo[d]imidazol-1-yl)but-2-en-1-yl)-1H-benzo[d]imidazol-7-yl)oxy)prop-1-yn-1-yl)piperidine-1-carboxylate], the EC50 is more than 500 nM.

For `CCn1nc(C)cc1C(=O)Nc1nc2cc(C(N)=O)cc(OC)c2n1C/C=C/Cn1c(NC(=O)c2cc(C)nn2CC)nc2cc(C(N)=O)cc(OCC#CC3CCN(C(=O)OC4CCCC4)CC3)c21` [Example 7, cyclopentyl (E)-4-(3-((5-carbamoyl-1-(4-(5-carbamoyl-2-(1-ethyl-3-methyl-1H-pyrazole-5-carboxamido)-7-methoxy-1H-benzo[d]imidazol-1-yl)but-2-en-1-yl)-2-(1-ethyl-3-methyl-1H-pyrazole-5-carboxamido)-1H-benzo[d]imidazol-7-yl)oxy)prop-1-yn-1-yl)piperidine-1-carboxylate], the EC50 is less than 50 nM.

For the compound `CCn1nc(C)cc1C(=O)Nc1nc2cc(C(N)=O)cc(OC)c2n1C/C=C/Cn1c(NC(=O)c2cc(C)nn2CC)nc2cc(C(N)=O)cc(OCC#CCC3CCN(C(=O)N4CCN(C(=O)OC(C)(C)C)CC4)CC3)c21` [Example 47, tert-butyl (E)-4-(4-(4-((5-carbamoyl-1-(4-(5-carbamoyl-2-(1-ethyl-3-methyl-1H-pyrazole-5-carboxamido)-7-methoxy-1H-benzo[d]imidazol-1-yl)but-2-en-1-yl)-2-(1-ethyl-3-methyl-1H-pyrazole-5-carboxamido)-1H-benzo[d]imidazol-7-yl)oxy)but-2-yn-1-yl)piperidine-1-carbonyl)piperazine-1-carboxylate], the 50% effective concentration (EC50) was less than 50 nM.

On to `CCn1nc(C)cc1C(=O)Nc1nc2cc(C(=O)O)cc(OC)c2n1C/C=C/Cn1c(NC(=O)c2cc(C)nn2CC)nc2cc(C(N)=O)cc(OCC#CC3CCN(C(=O)OC(C)(C)C)CC3)c21` [Example 1, (E)-1-(4-(7-((3-(1-(tert-butoxycarbonyl)piperidin-4-yl)prop-2-yn-1-yl)oxy)-5-carbamoyl-2-(1-ethyl-3-methyl-1H-pyrazole-5-carboxamido)-1H-benzo[d]imidazol-1-yl)but-2-en-1-yl)-2-(1-ethyl-3-methyl-1H-pyrazole-5-carboxamido)-7-methoxy-1H-benzo[d]imidazole-5-carboxylic acid], for which the EC50 was more than 500 nM.

Take `CCn1nc(C)cc1C(=O)Nc1nc2cc(C(N)=O)cc(OC)c2n1C/C=C/Cn1c(NC(=O)c2cc(C)nn2CC)nc2cc(C(N)=O)cc(OCC#CC3CCN(C(=O)N4CCC(O)CC4)CC3)c21` [Example 18, (E)-1-(4-(5-carbamoyl-2-(1-ethyl-3-methyl-1H-pyrazole-5-carboxamido)-7-((3-(1-(4-hydroxypiperidine-1-carbonyl)piperidin-4-yl)prop-2-yn-1-yl)oxy)-1H-benzo[d]imidazol-1-yl)but-2-en-1-yl)-2-(1-ethyl-3-methyl-1H-pyrazole-5-carboxamido)-7-methoxy-1H-benzo[d]imidazole-5-carboxamide]: the EC50 was less than 50 nM.

Regarding `CCn1nc(C)cc1C(=O)Nc1nc2cc(C(N)=O)cc(OC)c2n1C/C=C/Cn1c(NC(=O)c2cc(C)nn2CC)nc2cc(C(N)=O)cc(OCC#CC3CCN(C(=O)OC(C)(C)C)C3)c21` (centres unmarked) [Example 31, tert-butyl (E)-3-(3-((5-carbamoyl-1-(4-(5-carbamoyl-2-(1-ethyl-3-methyl-1H-pyrazole-5-carboxamido)-7-methoxy-1H-benzo[d]imidazol-1-yl)but-2-en-1-yl)-2-(1-ethyl-3-methyl-1H-pyrazole-5-carboxamido)-1H-benzo[d]imidazol-7-yl)oxy)prop-1-yn-1-yl)pyrrolidine-1-carboxylate], the concentration giving a half-maximal response (EC50) is less than 50 nM.

Take `CCn1nc(C)cc1C(=O)Nc1nc2cc(C(N)=O)cc(OC)c2n1C/C=C/Cn1c(NC(=O)c2cc(C)nn2CC)nc2cc(C(N)=O)cc(OCC#CC3CCN(C(=O)OCCN(C)C)CC3)c21` [Example 34, 2-(dimethylamino)ethyl (E)-4-(3-((5-carbamoyl-1-(4-(5-carbamoyl-2-(1-ethyl-3-methyl-1H-pyrazole-5-carboxamido)-7-methoxy-1H-benzo[d]imidazol-1-yl)but-2-en-1-yl)-2-(1-ethyl-3-methyl-1H-pyrazole-5-carboxamido)-1H-benzo[d]imidazol-7-yl)oxy)prop-1-yn-1-yl)piperidine-1-carboxylate]: the EC50 was less than 50 nM.

`CCn1nc(C)cc1C(=O)Nc1nc2cc(C(N)=O)cc(OC)c2n1C/C=C/Cn1c(NC(=O)c2cc(C)nn2CC)nc2cc(C(N)=O)cc(OCC#CCN3CCN(C(=O)OC(C)(C)C)CC3)c21` [Example 37] registered a concentration giving a half-maximal response (EC50) of less than 50 nM.

The values are drawn from patent publication US20230219931A1, “FUSED HETEROARYL HYDROXAMATES AS STING AGONISTS” (BiSiChem Co., Ltd., priority 2022, published 2023).
